How the values were obtained:
[1] = test system: MELOE-1 specific CD4+ T cells; assay: MELOE-1 CD4+ T cell responses in PBMC from healthy donors: restimulation of microcultures with overlapping peptides, CD4/TNF-α staining; assay type: cell-based, human; settings: for Microcultures containing MELOE-1 specific CD4+ T cells (TNF-α production): positive/tested microcultures
Description: PBMC from healthy donors were stimulated with 10 μM of MELOE-1. After 14 days, the presence of CD4 T cells specific for the different regions of MELOE-1 was assessed by restimulating cells with MELOE-12-21, MELOE-111-30, MELOE-118-37 and MELOE-126-46 peptides, followed by CD4/TNF-α double staining and flow cytometry analysis. Between brackets is indicated the mean % of TNF-α producing CD4 T cells, in positive microcultures. NA: not available.
(§1) PBMC from healthy donors or melanoma patients (2·10^5 cells/well) were cultured for 14 days with 10 μM of MELOE-1 whole antigen (46 amino acids) in RPMI medium supplemented with 8% HS, 50 IU/ml of rIL-2 (Chiron, France) and L-Glutamin, in 96-well multiplates. Microcultures were then restimulated individually with each overlapping peptide (MELOE-12-21, MELOE-111-30, MELOE-118-37, MELOE-12646 or MELOE-122-46 for melanoma patients) in the presence of 10 μg/mL brefeldin A for 5 hours and the percentage of CD4^+ specific T cells was assessed by TNF-α, IFN-γ or IL-4 intracellular staining. A negative control without peptide was included in all experiments.
Our purpose was to look for the existence of class II helper epitopes all along MELOE-1 sequence (SEQ ID NO:20), in order to document the immunogenicity of the different regions of this melanoma antigen. We stimulated 2·10^7 PBMC from seven healthy donors with MELOE-1 whole antigen and tested, after a 14-day culture period the presence of CD4 T cells specific for each region of the protein. Microcultures were screened for TNFα production by CD4+ T cells, after restimulation with four MELOE-1 derived overlapping peptides (Table I), in an autopresentation assay. […] On the contrary, the central region 18-37, containing an already described DR11-restricted epitope (24-37) located just at the end of this 20-mer peptide (Rogel et al., 2011), induced specific responses in microcultures deriving from only 2/7 donors (HD9 and HD17, both expressing the DR11 element). In these two donors, we detected 6 and 7% of positive microcultures, containing between 0.6 to 3.7% of TNFα producing CD4 T cells.

[2] = test system: MELOE-1 specific CD4 T cells; assay: MELOE-1 CD4+ T cell responses in PBMC from melanoma patients: restimulation with peptides, CD4/IFN-γ (Th1) and CD4/IL4 (Th2) staining; assay type: cell-based, human; settings: for mean % of cytokine producing CD4 T cells, in positive microcultures (IFN-γ): Th1; for Th1 responses (IFN-γ positive microcultures) / Th2 responses (IL4 positive microcultures): positive/tested microcultures; for mean % of cytokine producing CD4 T cells, in positive microcultures (IL4): Th2
Description: PBMC from melanoma patients were stimulated with 10 μM of MELOE-1. After 14 days, the presence of CD4 T cells specific for the different regions of MELOE-1 was assessed by restimulating cells with MELOE-12-21, MELOE-111-30 and MELOE-122-46 peptides, followed by CD4/IFN-γ double staining for the detection of Th1 responses, and by CD4/IL4 double staining for Th2 responses. Between brackets is indicated the mean % of cytokine producing CD4 T cells, in positive microcultures.
as §1
In order to confirm the immunogenicity of each MELOE-1 regions in melanoma patients, we stimulated melanoma patients PBMC with the MELOE-1 whole protein, and tested the reactivity of stimulated lymphocytes towards the three most immunogenic regions: 2-21, 11-30, and 22-46. For this study, instead of challenging microcultures with the 18-37 peptide, that appeared poorly immunogenic, we extended the C-terminus region from 26-46 to 22-46, in order to also detect responses to our previously described HLA-DR11-restricted epitope (24-37). […] We tested the induction of CD4 specific responses from MELOE-1 stimulated PBMC of […] melanoma patients. We documented CD4 responses specific for the central region of MELOE-1 (11-30) for 7/9 patients, whereas responses specific for MELOE-12-21 and MELOE-122-46 were respectively detected in 4/9 and 5/9 patients (Table III). These responses were mainly Th1 responses (IFN-g production) while less frequent Th2 responses specific for the three regions of MELOE-1 were detected in 3/9 patients for MELOE-12-21, 2/9 patients for MELOE-111-30 and 5/9 patients for MELOE-122-46 (Table III). […] Concerning Th2 responses, much less frequent, the C-term region appeared to induce more frequently the growth of IL-4 producing CD4 T cells than the two other regions (FIG. 2A). […] In summary, stimulation of patient's PBMC with MELOE-1 induced Th1 responses specific for diverse epitopes located all along the protein sequence, and among the different regions, the central region (11-30) and the C-term region (22-46) appeared to be especially immunogenic in term of frequency of responses.

Sequence: SCVGYPDEATSREQFLPSEG (SCVGYPDEATSREQFLPSEC) [MELOE-12-21]
- mean % of TNF-α producing CD4 T cells, in positive microcultures ([1]; donor HD9): (1.4% ± 0.6)
- Microcultures containing MELOE-1 specific CD4+ T cells (TNF-α production) ([1]; donor HD9 (DPβ1*0902/1501, DQβ1*0301, DRβ1*1104/1201)): 9/96
- mean % of TNF-α producing CD4 T cells, in positive microcultures ([1]; donor HD17): (3.2% ± 1.9)
- Microcultures containing MELOE-1 specific CD4+ T cells (TNF-α production) ([1]; donor HD17 (DPβ1*0401/0301, DQβ1*0301/0603, DRβ1*1101/1301)): 6/96
- mean % of TNF-α producing CD4 T cells, in positive microcultures ([1]; donor HD22): (1%)
- Microcultures containing MELOE-1 specific CD4+ T cells (TNF-α production) ([1]; donor HD22 (DPβ1*0401/1101, DQβ1*0202, DRβ1*0701)): 1/96
- mean % of TNF-α producing CD4 T cells, in positive microcultures ([1]; donor HD24): (1.3% ± 0.8)
- Microcultures containing MELOE-1 specific CD4+ T cells (TNF-α production) ([1]; donor HD24 (DPβ1*0401/0101, DQβ1*0501/0602, DRβ1*0101/1501)): 3/96
- mean % of TNF-α producing CD4 T cells, in positive microcultures ([1]; donor HD25): (0.6% ± 0.1)
- Microcultures containing MELOE-1 specific CD4+ T cells (TNF-α production) ([1]; donor HD25 (DPβ1*0401/0402, DQβ1*0201, DRβ1*0301)): 3/96
- Microcultures containing MELOE-1 specific CD4+ T cells (TNF-α production) ([1]; donor HD27 (DQβ1*501/0201, DRβ1*0101/0301)): 0/96
- mean % of TNF-α producing CD4 T cells, in positive microcultures ([1]; donor HD28): (2.7% ± 1.2)
- Microcultures containing MELOE-1 specific CD4+ T cells (TNF-α production) ([1]; donor HD28 (DRβ1*0301)): 30/48
- % of positive microcultures ([1]; healthy donor HD28): 62%
- donors in which CD4 responses against the region were detected ([1]; seven healthy donors): 6/7
- Th1 responses, % of tested microcultures ([2]; 576 tested microcultures from melanoma patients, IFN-γ): 3.3%
- patients in which Th2 responses were detected ([2]; melanoma patients, IL4): 3/9
- patients in which CD4 responses specific for the region were detected ([2]; melanoma patients, Table III, Th1 (IFN-γ)): 4/9
- mean % of cytokine producing CD4 T cells, in positive microcultures (IFN-γ) ([2]; patient Pt ≠ 1): (0.7%)
- Th1 responses (IFN-γ positive microcultures) ([2]; patient Pt ≠ 1): 1/48
- Th2 responses (IL4 positive microcultures) ([2]; patient Pt ≠ 1): 0/48
- mean % of cytokine producing CD4 T cells, in positive microcultures (IFN-γ) ([2]; patient Pt ≠ 2): (0.8% ± 0.2)
- Th1 responses (IFN-γ positive microcultures) ([2]; patient Pt ≠ 2): 4/96
- Th2 responses (IL4 positive microcultures) ([2]; patient Pt ≠ 2): 0/96
- Th1 responses (IFN-γ positive microcultures) ([2]; patient Pt ≠ 3 (DPβ1*0201/2001, DQβ1*0303/0501, DRβ1*0101/0701)): 10/96
- mean % of cytokine producing CD4 T cells, in positive microcultures (IFN-γ) ([2]; patient Pt ≠ 3): (1.7% ± 2.9)
- Th2 responses (IL4 positive microcultures) ([2]; patient Pt ≠ 3): 0/96
- mean % of cytokine producing CD4 T cells, in positive microcultures (IL4) ([2]; patient Pt ≠ 4): (0.7%)
- Th1 responses (IFN-γ positive microcultures) ([2]; patient Pt ≠ 4): 0/48
- Th2 responses (IL4 positive microcultures) ([2]; patient Pt ≠ 4): 1/48
- mean % of cytokine producing CD4 T cells, in positive microcultures (IFN-γ) ([2]; patient Pt ≠ 5): (0.6%)
- mean % of cytokine producing CD4 T cells, in positive microcultures (IL4) ([2]; patient Pt ≠ 5): (0.7% ± 0.1)
- Th1 responses (IFN-γ positive microcultures) ([2]; patient Pt ≠ 5): 1/48
- Th2 responses (IL4 positive microcultures) ([2]; patient Pt ≠ 5): 2/48
- Th1 responses (IFN-γ positive microcultures) ([2]; patient Pt ≠ 6): 0/48
- Th2 responses (IL4 positive microcultures) ([2]; patient Pt ≠ 6): 0/48
- Th1 responses (IFN-γ positive microcultures) ([2]; patient Pt ≠ 7): 0/48
- Th2 responses (IL4 positive microcultures) ([2]; patient Pt ≠ 7): 0/48
- Th1 responses (IFN-γ positive microcultures) ([2]; patient Pt ≠ 8): 0/48
- Th2 responses (IL4 positive microcultures) ([2]; patient Pt ≠ 8): 0/48
- mean % of cytokine producing CD4 T cells, in positive microcultures (IL4) ([2]; patient Pt ≠ 9): (0.6%)
- Th1 responses (IFN-γ positive microcultures) ([2]; patient Pt ≠ 9): 0/48
- Th2 responses (IL4 positive microcultures) ([2]; patient Pt ≠ 9): 1/48
